Molecules are shown by their SMILES. Read-outs that look alike come from different tables or passages of the source.

The source of these data is patent US9045501B2, “5-HT3 receptor modulators, methods of making, and use thereof” (Albany Molecular Research, Inc., priority 2009, dated 2015).

This assay addresses human 5-HT3 receptor (Homo sapiens (Human), UniProt P46098). The experiment in a line: Radioligand binding assay (SPA format), affinity for the human 5-HT3 receptor. The note with it: for inhibition at 10 µM: read-out: h5-HT3A % inhibition @ 10 μM. On the procedure: The relative affinity of the various compounds for the human 5-HT3 receptor was measured in a radioligand binding assay, using a scintillation proximity assay (SPA) format. Test compounds were dissolved to 10 mM in 100% DMSO, then serially diluted at 10× assay concentrations in 100% DMSO in 96-well polypropylene plates and further diluted to 4× assay concentrations with the assay buffer. Samples were incubated in 50 mM Tris-HCl, pH 7.5, 3 mM MgCl2, 1 mM EDTA and 10% DMSO with 10 nM [9-methyl-^3H]BRL-43694 (Perkin Elmer), 3 μg of human 5-HT3 receptor membranes (Perkin Elmer) and 0.5 mg/mL SPA beads (WGA PVT, Amersham Biosciences) in a final volume of 0.2 mL. Binding reactions were set up in wells of PicoPlates-96 (Perkin Elmer) by adding consecutively 50 μL of each competing compound or buffer, SPA beads, the radioligand and 5-HT3 receptor membranes. After an overnight incubation at room temperature on a Nutator mixer, plates were centrifuged for 15 min at 1,500 rpm, followed by incubation in the dark for 30 min. Radioactivity was counted in the TopCount microplate counter (Perkin Elmer) for 5 min. Total binding control contained compound dilution buffer only; nonspecific binding was determined in the presence of 30 μM MDL-72222. Specific binding was determined by subtracting nonspecific binding from total binding. All experiments were performed in duplicate using ten concentrations of competing ligand, with ondansetron included as a control in every run. IC50 values were determined from specific binding data using XLfit4.1 curve fitting software from IDBS Ltd. The inhibition constant (Ki) was calculated from the Cheng Prusoff equation: (Ki=IC50/(1+(L/KD)), where L=concentration of radioligand in the assay, and KD=affinity of the radioligand for the receptor.

[1] abbreviates: [9-methyl-3H]BRL-43694 10 nM, human 5-HT3 receptor membranes, Cheng Prusoff, read-out: h5-HT3A Ki.
The mark [2] stands for this setting: 10 μM compound, radioligand binding.

Sequence of human 5-HT3 receptor (P46098 24-478): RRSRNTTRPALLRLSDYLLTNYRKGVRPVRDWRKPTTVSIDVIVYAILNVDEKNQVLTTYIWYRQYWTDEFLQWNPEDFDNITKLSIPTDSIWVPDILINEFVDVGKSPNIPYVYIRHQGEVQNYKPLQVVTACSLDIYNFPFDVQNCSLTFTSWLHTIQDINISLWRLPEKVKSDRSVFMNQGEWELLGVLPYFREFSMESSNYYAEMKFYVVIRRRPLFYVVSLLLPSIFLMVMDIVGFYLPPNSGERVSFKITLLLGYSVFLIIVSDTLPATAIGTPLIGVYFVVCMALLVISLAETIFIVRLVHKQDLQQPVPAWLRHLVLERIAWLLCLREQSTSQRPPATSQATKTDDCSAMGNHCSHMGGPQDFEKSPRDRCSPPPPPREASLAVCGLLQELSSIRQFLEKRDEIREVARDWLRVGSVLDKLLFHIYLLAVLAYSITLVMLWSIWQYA

The term inhibition denotes the percentage by which the read-out fell short of the control. As to `O=C1c2cccc3[nH]c(=O)n(c23)CCN1[C@H]1CN2CCC1CC2` [Example 24, 6-((R)-quinuclidin-3-yl)-5,6-dihydroimidazo[4,5,1-jk][1,4]benzodiazepine-2,7(1H, 4H)-dione], the inhibition at 10 µM was determined as 75%.
The Ki is the dissociation constant of the complex between target and ligand, obtained from inhibition or displacement. With `O=C1c2cccc3ccn(c23)CCCN1[C@@H]1CN2CCC1CC2` [Example 6, (S)-2-(quinuclidin-3-yl)-2,3,4,5-tetrahydro-1H-[1,5]diazocino[3,2,1-hi]indol-1-one], the inhibition constant Ki under setting [1] came to 205 nM.
Turning to `CCc1nc2cccc3c2n1CCN([C@H]1CN2CCC1CC2)C3=O` [Example 16, 2-ethyl-6-((R)-quinuclidin-3-yl)-5,6-dihydroimidazo[4,5,1-jk][1,4]benzodiazepin-7(4H)-one], the inhibition at 10 µM is 39%.
As to `O=C1c2cc(Cl)cc3cnn(c23)CCN1[C@@H]1CN2CCC1CC2` [Example 8, (S)-4-chloro-7-(quinuclidin-3-yl)-8,9-dihydro-[1,4]diazepino[6,7,1-hi]indazol-6(7H)-one], the Ki under setting [1] was 0.5 nM.
Still for that read-out and setting: the value for `O=C1c2cc(O)cc3cnn(c23)CCN1[C@@H]1CN2CCC1CC2` [Example 12, (S)-4-hydroxy-7-(quinuclidin-3-yl)-8,9-dihydro-[1,4]diazepino[6,7,1-hi]indazol-6(7H)-one] was 2 nM.
For the compound `Cc1nc2cccc3c2n1CCN([C@@H]1CN2CCC1CC2)C3=O` [Example 15, 2-methyl-6-((S)-quinuclidin-3-yl)-5,6-dihydroimidazo[4,5,1-jk][1,4]benzodiazepin-7(4H)-one], the inhibition at 10 µM was 80%.
As to `O=C1c2cccc3nc(-c4ccccc4)n(c23)CCN1[C@H]1CN2CCC1CC2` [Example 20, 2-phenyl-6-((R)-quinuclidin-3-yl)-5,6-dihydroimidazo[4,5,1-jk][1,4]benzodiazepin-7(4H)-one], the inhibition at 10 µM under setting [2] was 23%.
For the compound `COc1cc2c3c(cnn3CCN([C@@H]3CN4CCC3CC4)C2=O)c1` [Example 10, (S)-4-methoxy-7-(quinuclidin-3-yl)-8,9-dihydro-[1,4]diazepino[6,7,1-hi]indazol-6(7H)-one], the inhibitory constant (Ki) stood at 14 nM.
For `CC(C)c1nc2cccc3c2n1CCN([C@@H]1CN2CCC1CC2)C3=O` [Example 19, 2-isopropyl-6-((S)-quinuclidin-3-yl)-5,6-dihydroimidazo[4,5,1-jk][1,4]benzodiazepin-7(4H)-one], the inhibition at 10 µM under setting [2] came to 74%.
On to `O=C1c2cccc3ncn(c23)CCN1[C@@H]1CN2CCC1CC2` [Example 13, 6-((S)-quinuclidin-3-yl)-5,6-dihydroimidazo[4,5,1-jk][1,4]benzodiazepin-7(4H)-one], for which the Ki under setting [1] was 32 nM.
For the compound `O=C1c2cccc3ccn(c23)CCN1[C@H]1CN2CCC1CC2` [Example 1, (R)-2-(quinuclidin-3-yl)-3,4-dihydro-[1,4]diazepino[6,7,1-hi]indol-1(2H)-one], the Ki under setting [1] was determined as 74 nM.
For the compound `O=C1c2cccc3cnn(c23)CCN1CC12CCN(CC1)CC2` [Example 32, 7-(quinuclidin-4-ylmethyl)-8,9-dihydro-[1,4]diazepino[6,7,1-hi]indazol-6(7H)-one], the inhibition constant (Ki) under setting [1] worked out at 73 nM.
`O=C1c2cccc3ccn(c23)CCCN1[C@H]1CN2CCC1CC2` [Example 5, (R)-2-(quinuclidin-3-yl)-2,3,4,5-tetrahydro-1H-[1,5]diazocino[3,2,1-hi]indol-1-one]: the inhibition constant (Ki) under setting [1] was found to be 416 nM.
`COc1ccc(Cn2cc3c4c(cccc42)C(=O)N(CC24CCN(CC2)CC4)CC3)cc1` [Example 27, 6-(4-methoxybenzyl)-2-(quinuclidin-4-ylmethyl)-2,3,4,6-tetrahydro-1H-azepino[5,4,3-cd]indol-1-one] gave a Ki of 8 nM.
Consider `O=C1c2cc(F)cc3cnn(c23)CCN1[C@@H]1CN2CCC1CC2` [Example 9, (S)-4-fluoro-7-(quinuclidin-3-yl)-8,9-dihydro-[1,4]diazepino[6,7,1-hi]indazol-6(7H)-one], for which, under setting [1], the Ki is 6 nM.
For the compound `O=C1c2cccc3nc(-c4ccc(F)cc4)n(c23)CCN1[C@@H]1CN2CCC1CC2` [Example 22, 2-(4-fluorophenyl)-6-((S)-quinuclidin-3-yl)-5,6-dihydroimidazo[4,5,1-jk][1,4]benzodiazepin-7(4H)-one], under setting [2], the inhibition at 10 µM amounted to 69%.
In the case of `O=C1c2cccc3nc(-c4ccccc4Cl)n(c23)CCN1[C@@H]1CN2CCC1CC2` [Example 23, 2-(2-chlorophenyl)-6-((S)-quinuclidin-3-yl)-5,6-dihydroimidazo[4,5,1-jk][1,4]benzodiazepin-7(4H)-one], under setting [1], the Ki was 206 nM.
On the same count and under the same terms, the value for `O=C1c2cccc3c2N(CCN1[C@@H]1CN2CCC1CC2)S(=O)(=O)N3` [Example 26, 6-((S)-quinuclidin-3-yl)-5,6-dihydro-1H-[1,2,5]thiadiazolo[4,3,2-jk][1,4]benzodiazepin-7(4H)-one 2,2-dioxide] was 701 nM.
Turning to `CC(C)c1nc2cccc3c2n1CCN([C@H]1CN2CCC1CC2)C3=O` [Example 18, 2-isopropyl-6-((R)-quinuclidin-3-yl)-5,6-dihydroimidazo[4,5,1-jk][1,4]benzodiazepin-7(4H)-one], the inhibition at 10 µM under setting [2] is 51%.
As to `O=C1c2cccc3[nH]cc(c23)CCN1CC12CCN(CC1)CC2` [Example 28, 2-(quinuclidin-4-ylmethyl)-2,3,4,6-tetrahydro-1H-azepino[5,4,3-cd]indol-1-one], the Ki under setting [1] was 30 nM.
Consider `O=C1c2cccc3nc(-c4ccccc4)n(c23)CCN1[C@@H]1CN2CCC1CC2` [Example 21, 2-phenyl-6-((S)-quinuclidin-3-yl)-5,6-dihydroimidazo[4,5,1-jk][1,4]benzodiazepin-7(4H)-one], for which the Ki under setting [1] came to 406 nM.
With `Cc1cc2c3c(cnn3CCN([C@@H]3CN4CCC3CC4)C2=O)c1` [Example 11, (S)-4-methyl-7-(quinuclidin-3-yl)-8,9-dihydro-[1,4]diazepino[6,7,1-hi]indazol-6(7H)-one], the inhibitory constant (Ki) under setting [1] was found to be 0.8 nM.
Consider `Cc1nc2cccc3c2n1CCN([C@H]1CN2CCC1CC2)C3=O` [Example 14, 2-methyl-6-((R)-quinuclidin-3-yl)-5,6-dihydroimidazo[4,5,1-jk][1,4]benzodiazepin-7(4H)-one], for which the inhibition at 10 µM worked out at 40%.
On to `Cc1cn2c3c(cc(Cl)cc13)C(=O)N([C@@H]1CN3CCC1CC3)CC2` [Example 4, (S)-9-chloro-7-methyl-2-(quinuclidin-3-yl)-3,4-dihydro-[1,4]diazepino[6,7,1-hi]indol-1(2H)-one], for which, under setting [1], the inhibition constant (Ki) came out at 0.2 nM.
Turning to `CCc1nc2cccc3c2n1CCN([C@@H]1CN2CCC1CC2)C3=O` [Example 17, 2-ethyl-6-((S)-quinuclidin-3-yl)-5,6-dihydroimidazo[4,5,1-jk][1,4]benzodiazepin-7(4H)-one], the Ki under setting [1] was 130 nM.
